Numbered stars: 1 amine (or outer) side, 2 acyl side, 3 side chain; on linkers, the order of the positions; unused ones are H or OH. Square brackets hold non-standard residues; d marks the D form. Side chains are listed from the residue outwards. Peptide text beside a SMILES is read from it. * marks the point of attachment. C20 diacid = O=C(O)CCCCCCCCCCCCCCCCCCC(=O)*; γGlu = O=C(O)[C@H](CCC(=O)[*:2])N[*:1]; AEEA = NCCOCCOCC(=O)O; Aib = CC(C)(N)C(=O)O
Columns and labels:
[1] = target: human GLP-1 receptor (GLP-1R) (Homo sapiens, UniProt P43220); assay: cAMP pharmacological functional assay in presence of casein, hGLP-1R; assay type: cell-based; details: HEK293 cells expressing hGLP-1R, 0.1% Casein, geometric mean; read-out: hGLP1R cAMP Rel EC50 nM (SEM, n)
Sequence of human GLP-1 receptor (GLP-1R) (P43220 24-463): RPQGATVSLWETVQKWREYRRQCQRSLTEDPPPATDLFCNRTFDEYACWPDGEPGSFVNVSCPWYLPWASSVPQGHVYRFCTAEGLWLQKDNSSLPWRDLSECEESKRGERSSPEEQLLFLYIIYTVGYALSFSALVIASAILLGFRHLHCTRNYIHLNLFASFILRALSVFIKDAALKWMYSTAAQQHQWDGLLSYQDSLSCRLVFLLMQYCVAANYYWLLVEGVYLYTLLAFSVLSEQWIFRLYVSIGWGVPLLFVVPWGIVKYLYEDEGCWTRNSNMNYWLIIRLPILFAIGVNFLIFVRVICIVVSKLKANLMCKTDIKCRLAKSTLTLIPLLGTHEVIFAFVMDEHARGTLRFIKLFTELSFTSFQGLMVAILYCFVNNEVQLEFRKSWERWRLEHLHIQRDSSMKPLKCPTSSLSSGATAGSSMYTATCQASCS

[2] = target: T1, gastric inhibitory peptide receptor (GIPR) (Homo sapiens, UniProt P48546); assay: cAMP pharmacological functional assay in presence of casein, hGIPR; assay type: cell-based; details: HEK293 cells expressing hGIPR, 0.1% Casein, geometric mean; read-out: hGIPR cAMP Rel EC50 nM (SEM, n)
T1 sequence (P48546 22-466): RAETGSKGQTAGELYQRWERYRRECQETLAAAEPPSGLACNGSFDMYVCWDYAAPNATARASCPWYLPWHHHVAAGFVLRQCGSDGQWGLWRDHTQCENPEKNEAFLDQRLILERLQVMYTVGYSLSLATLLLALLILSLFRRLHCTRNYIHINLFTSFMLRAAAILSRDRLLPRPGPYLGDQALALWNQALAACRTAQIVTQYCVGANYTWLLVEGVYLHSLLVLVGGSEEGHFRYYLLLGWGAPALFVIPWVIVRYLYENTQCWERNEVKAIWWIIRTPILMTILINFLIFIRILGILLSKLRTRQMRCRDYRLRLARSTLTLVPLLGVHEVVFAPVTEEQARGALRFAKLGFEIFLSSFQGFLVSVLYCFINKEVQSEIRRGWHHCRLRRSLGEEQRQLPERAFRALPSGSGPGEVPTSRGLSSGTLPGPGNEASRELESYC

[3] = target: human GLP-1R (Homo sapiens, UniProt P43220); assay: [125I]-GLP-1 binding (SPA), human GLP-1 receptor; set-up: expressed in transfected cells; crude membranes; details: read-out: hGLP1R Ki, (nM) (SEM, n)
Sequence of human GLP-1R (P43220 24-463): as the sequence (P43220 24-463) above
Summary of the method: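 Crude-membrane binding assay; one membrane prep included 1 mM MgCl2 and 25 units/ml DNAse I during lysis. Assay buffer at pH 7.4 contains 0.1% (w/v) bacitracin and 0.003% (w/v) TWEEN-20. Ki is reported as geometric mean.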

[4] = target: T2, human Gcg receptor (Homo sapiens, UniProt P47871); assay: [125I]-Glucagon binding (SPA), human Gcg receptor; details: read-out: hGLcgR Ki, nM (SEM, n)
T2 construct: expressed in transfected cells; crude membranes
T2 sequence (P47871 26-477): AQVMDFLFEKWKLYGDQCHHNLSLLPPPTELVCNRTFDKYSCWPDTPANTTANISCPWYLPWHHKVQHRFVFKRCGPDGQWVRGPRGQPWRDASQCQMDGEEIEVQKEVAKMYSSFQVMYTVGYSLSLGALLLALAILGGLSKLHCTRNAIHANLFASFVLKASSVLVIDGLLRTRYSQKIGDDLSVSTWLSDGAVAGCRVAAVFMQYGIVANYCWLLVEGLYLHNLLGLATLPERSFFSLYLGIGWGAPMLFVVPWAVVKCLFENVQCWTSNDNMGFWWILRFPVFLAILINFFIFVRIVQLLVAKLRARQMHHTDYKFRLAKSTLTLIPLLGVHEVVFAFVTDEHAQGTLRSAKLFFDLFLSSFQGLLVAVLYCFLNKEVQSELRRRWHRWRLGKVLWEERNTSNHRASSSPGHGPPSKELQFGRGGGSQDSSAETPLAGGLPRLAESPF
Summary of the method: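 Crude membranes from cells expressing the receptor, prepared by hypotonic lysis in 50 mM Tris HCl pH 7.5 with protease inhibitors, homogenization and differential centrifugation, were used in a WGA-bead SPA. Binding buffer: 25 mM HEPES pH 7.4, 2.5 mM CaCl2, 1 mM MgCl2, bacitracin, Tween-20.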

[5] = target: T3, human GIP receptor (Homo sapiens, UniProt P48546); assay: [125I]-GIP binding (SPA), human GIP receptor; details: read-out: hGIPR Ki, nM (SEM, n)
T3 construct: expressed in transfected cells; crude membranes
T3 sequence (P48546 22-466): T1 sequence (P48546 22-466)

Structure (SMILES)	EC50 [1]	EC50 [2]	Ki [3]	Ki [4]	Ki [5]
CC[C@H](C)[C@H](NC(=O)[C@H](CCCCN)NC(=O)[C@H](CC(=O)O)NC(=O)[C@H](CC(C)C)NC(=O)[C@H](CC(C)C)NC(=O)[C@@H](NC(=O)[C@H](CO)NC(=O)[C@H](CCCCNC(=O)COCCOCCNC(=O)COCCOCCNC(=O)CC[C@H](NC(=O)CCCCCCCCCCCCCCCCCCC(=O)O)C(=O)O)NC(=O)[C@H](CC(=O)O)NC(=O)[C@H](CO)NC(=O)[C@@H](NC(=O)[C@H](Cc1ccccc1)NC(=O)[C@@H](NC(=O)CNC(=O)[C@H](CCC(=O)O)NC(=O)C(C)(C)NC(=O)[C@@H](N)Cc1ccc(O)cc1)[C@@H](C)O)[C@@H](C)O)[C@@H](C)CC)C(=O)N[C@@H](C)C(=O)N[C@@H](CCC(N)=O)C(=O)NC(C)(C)C(=O)N[C@@H](C)C(=O)N[C@@H](Cc1ccccc1)C(=O)N[C@H](C(=O)N[C@@H](CCC(=O)O)C(=O)N[C@@H](Cc1ccc(O)cc1)C(=O)N[C@@H](CC(C)C)C(=O)N[C@H](C(=O)N[C@@H](CCC(=O)O)C(=O)NCC(=O)NCC(=O)N1CCC[C@H]1C(=O)N[C@@H](CO)C(=O)N[C@@H](CO)C(=O)NCC(=O)N[C@@H](C)C(=O)N1CCC[C@H]1C(=O)N1CCC[C@H]1C(=O)N1CCC[C@H]1C(=O)N[C@@H](CO)C(N)=O)[C@@H](C)CC)[C@@H](C)CC [Example 23] (H-Y[Aib]EGTFTSDK([AEEA-AEEA-γGlu-C20 diacid])SILLDKIAQ[Aib]AFIEYLIEGGPSSGAPPPS-NH2)	0.19 nM	0.204 nM	6.32 nM	> 1010 nM	0.258 nM
CC[C@H](C)[C@H](NC(=O)[C@H](CCCCN)NC(=O)[C@H](CC(=O)O)NC(=O)[C@H](CC(C)C)NC(=O)[C@H](CC(C)C)NC(=O)[C@@H](NC(=O)[C@H](CCCCNC(=O)COCCOCCNC(=O)COCCOCCNC(=O)CC[C@H](NC(=O)CCCCCCCCCCCCCCCCCCC(=O)O)C(=O)O)NC(=O)[C@H](Cc1ccc(O)cc1)NC(=O)[C@H](CC(=O)O)NC(=O)[C@H](CO)NC(=O)[C@@H](NC(=O)[C@H](Cc1ccccc1)NC(=O)[C@@H](NC(=O)CNC(=O)[C@H](CCC(=O)O)NC(=O)C(C)(C)NC(=O)[C@@H](N)Cc1ccc(O)cc1)[C@@H](C)O)[C@@H](C)O)[C@@H](C)CC)C(=O)N[C@@H](C)C(=O)N[C@@H](CCC(N)=O)C(=O)NC(C)(C)C(=O)N[C@@H](C)C(=O)N[C@@H](Cc1ccccc1)C(=O)N[C@H](C(=O)N[C@@H](CCC(=O)O)C(=O)N[C@@H](Cc1ccc(O)cc1)C(=O)N[C@@H](CC(C)C)C(=O)N[C@H](C(=O)N[C@@H](CCC(=O)O)C(=O)NCC(=O)NCC(=O)N1CCC[C@H]1C(=O)N[C@@H](CO)C(=O)N[C@@H](CO)C(=O)NCC(=O)N[C@@H](C)C(=O)N1CCC[C@H]1C(=O)N1CCC[C@H]1C(=O)N1CCC[C@H]1C(=O)N[C@@H](CO)C(N)=O)[C@@H](C)CC)[C@@H](C)CC [Example 24] (H-Y[Aib]EGTFTSDYK([AEEA-AEEA-γGlu-C20 diacid])ILLDKIAQ[Aib]AFIEYLIEGGPSSGAPPPS-NH2)	13 nM	0.762 nM	5.04 nM	49.8 nM	0.232 nM
CC[C@H](C)[C@H](NC(=O)[C@H](CCCCN)NC(=O)[C@H](CC(=O)O)NC(=O)[C@H](CC(C)C)NC(=O)[C@H](CC(C)C)NC(=O)[C@H](CCCCNC(=O)COCCOCCNC(=O)COCCOCCNC(=O)CC[C@H](NC(=O)CCCCCCCCCCCCCCCCCCC(=O)O)C(=O)O)NC(=O)[C@H](CO)NC(=O)[C@H](Cc1ccc(O)cc1)NC(=O)[C@H](CC(=O)O)NC(=O)[C@H](CO)NC(=O)[C@@H](NC(=O)[C@H](Cc1ccccc1)NC(=O)[C@@H](NC(=O)CNC(=O)[C@H](CCC(=O)O)NC(=O)C(C)(C)NC(=O)[C@@H](N)Cc1ccc(O)cc1)[C@@H](C)O)[C@@H](C)O)C(=O)N[C@@H](C)C(=O)N[C@@H](CCC(N)=O)C(=O)NC(C)(C)C(=O)N[C@@H](C)C(=O)N[C@@H](Cc1ccccc1)C(=O)N[C@H](C(=O)N[C@@H](CCC(=O)O)C(=O)N[C@@H](Cc1ccc(O)cc1)C(=O)N[C@@H](CC(C)C)C(=O)N[C@H](C(=O)N[C@@H](CCC(=O)O)C(=O)NCC(=O)NCC(=O)N1CCC[C@H]1C(=O)N[C@@H](CO)C(=O)N[C@@H](CO)C(=O)NCC(=O)N[C@@H](C)C(=O)N1CCC[C@H]1C(=O)N1CCC[C@H]1C(=O)N1CCC[C@H]1C(=O)N[C@@H](CO)C(N)=O)[C@@H](C)CC)[C@@H](C)CC [Example 25] (H-Y[Aib]EGTFTSDYSK([AEEA-AEEA-γGlu-C20 diacid])LLDKIAQ[Aib]AFIEYLIEGGPSSGAPPPS-NH2)	0.356 nM	0.23 nM	4.8 nM	81.1 nM	0.179 nM
CC[C@H](C)[C@H](NC(=O)[C@H](CCCCN)NC(=O)[C@H](CC(=O)O)NC(=O)[C@H](CC(C)C)NC(=O)[C@H](CCCCNC(=O)COCCOCCNC(=O)COCCOCCNC(=O)CC[C@H](NC(=O)CCCCCCCCCCCCCCCCCCC(=O)O)C(=O)O)NC(=O)[C@@H](NC(=O)[C@H](CO)NC(=O)[C@H](Cc1ccc(O)cc1)NC(=O)[C@H](CC(=O)O)NC(=O)[C@H](CO)NC(=O)[C@@H](NC(=O)[C@H](Cc1ccccc1)NC(=O)[C@@H](NC(=O)CNC(=O)[C@H](CCC(=O)O)NC(=O)C(C)(C)NC(=O)[C@@H](N)Cc1ccc(O)cc1)[C@@H](C)O)[C@@H](C)O)[C@@H](C)CC)C(=O)N[C@@H](C)C(=O)N[C@@H](CCC(N)=O)C(=O)NC(C)(C)C(=O)N[C@@H](C)C(=O)N[C@@H](Cc1ccccc1)C(=O)N[C@H](C(=O)N[C@@H](CCC(=O)O)C(=O)N[C@@H](Cc1ccc(O)cc1)C(=O)N[C@@H](CC(C)C)C(=O)N[C@H](C(=O)N[C@@H](CCC(=O)O)C(=O)NCC(=O)NCC(=O)N1CCC[C@H]1C(=O)N[C@@H](CO)C(=O)N[C@@H](CO)C(=O)NCC(=O)N[C@@H](C)C(=O)N1CCC[C@H]1C(=O)N1CCC[C@H]1C(=O)N1CCC[C@H]1C(=O)N[C@@H](CO)C(N)=O)[C@@H](C)CC)[C@@H](C)CC [Example 26] (H-Y[Aib]EGTFTSDYSIK([AEEA-AEEA-γGlu-C20 diacid])LDKIAQ[Aib]AFIEYLIEGGPSSGAPPPS-NH2)	0.293 nM	0.251 nM	4.22 nM	> 960 nM	0.176 nM
CC[C@H](C)[C@H](NC(=O)[C@H](CCCCN)NC(=O)[C@H](CC(=O)O)NC(=O)[C@H](CCCCNC(=O)COCCOCCNC(=O)COCCOCCNC(=O)CC[C@H](NC(=O)CCCCCCCCCCCCCCCCCCC(=O)O)C(=O)O)NC(=O)[C@H](CC(C)C)NC(=O)[C@@H](NC(=O)[C@H](CO)NC(=O)[C@H](Cc1ccc(O)cc1)NC(=O)[C@H](CC(=O)O)NC(=O)[C@H](CO)NC(=O)[C@@H](NC(=O)[C@H](Cc1ccccc1)NC(=O)[C@@H](NC(=O)CNC(=O)[C@H](CCC(=O)O)NC(=O)C(C)(C)NC(=O)[C@@H](N)Cc1ccc(O)cc1)[C@@H](C)O)[C@@H](C)O)[C@@H](C)CC)C(=O)N[C@@H](C)C(=O)N[C@@H](CCC(N)=O)C(=O)NC(C)(C)C(=O)N[C@@H](C)C(=O)N[C@@H](Cc1ccccc1)C(=O)N[C@H](C(=O)N[C@@H](CCC(=O)O)C(=O)N[C@@H](Cc1ccc(O)cc1)C(=O)N[C@@H](CC(C)C)C(=O)N[C@H](C(=O)N[C@@H](CCC(=O)O)C(=O)NCC(=O)NCC(=O)N1CCC[C@H]1C(=O)N[C@@H](CO)C(=O)N[C@@H](CO)C(=O)NCC(=O)N[C@@H](C)C(=O)N1CCC[C@H]1C(=O)N1CCC[C@H]1C(=O)N1CCC[C@H]1C(=O)N[C@@H](CO)C(N)=O)[C@@H](C)CC)[C@@H](C)CC [Example 27] (H-Y[Aib]EGTFTSDYSILK([AEEA-AEEA-γGlu-C20 diacid])DKIAQ[Aib]AFIEYLIEGGPSSGAPPPS-NH2)	0.557 nM	0.0789 nM	3.68 nM	315 nM	0.103 nM

Reference: US12252524B2, “GIP/GLP1 co-agonist compounds” (Eli Lilly and Company, priority 2018, dated 2025)
